Strand notation (5' to 3'): a small letter for the sugar, then the base; units joined by * are phosphorothioate-linked, units joined directly phosphodiester-linked; [ ] holds rarer units or linkages, { } end groups; capitals alone tell only the bases. e = 2'-O-(2-methoxyethyl) (MOE); [5mC] = 5-methylcytosine; d = 2'-deoxy (DNA)
System: human PKK mRNA
Test: Antisense inhibition of human PKK mRNA in HepaRG cells, 5,000 nM (Example 2)
Type: cell-based
Conditions: HepaRG cells, electroporation with 5,000 nM antisense oligonucleotide, PKK mRNA by RT-PCR (RTS3454), relative to untreated control cells
How it was run: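 HepaRG cells, 20,000 per well, were electroporated with 5,000 nM MOE gapmer (phosphorothioate, 5-methylcytosine) and incubated about 24 hours. PKK mRNA was quantified by qRT-PCR with primer probe set RTS3454, normalized to RIBOGREEN total RNA, and expressed as percent inhibition versus untreated controls.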

[1] = approximately 24 hours, Table 6 experiment

Row | Substance | % inhibition [1] | % inhibition (Table 7, approx. 24 hours)
1 | 547354 (eA*eT*eT*eG*eT*dT*d[5mC]*d[5mC]*dG*dG*dT*dA*d[5mC]*dT*d[5mC]*eT*eG*e[5mC]*e[5mC]*eT; antisense) [compound 547354] | 89% | 
2 | 547355 (e[5mC]*eA*eA*eT*eT*dG*dT*dT*d[5mC]*d[5mC]*dG*dG*dT*dA*d[5mC]*eT*e[5mC]*eT*eG*e[5mC]; antisense) [compound 547355] | 77% | 
3 | 547356 (eT*eA*eA*eT*eA*dG*dG*d[5mC]*dA*dA*dT*dT*dG*dT*dT*e[5mC]*e[5mC]*eG*eG*eT; antisense) [compound 547356] | 83% | 
4 | 547357 (e[5mC]*eT*eT*eT*eA*dA*dT*dA*dG*dG*d[5mC]*dA*dA*dT*dT*eG*eT*eT*e[5mC]*e[5mC]; antisense) [compound 547357] | 78% | 
5 | 547359 (e[5mC]*eG*eG*eG*eA*d[5mC]*dT*dG*dT*dA*d[5mC]*dT*dT*dT*dA*eA*eT*eA*eG*eG; antisense) [compound 547359] | 81% | 
6 | 547361 (eG*e[5mC]*eA*eA*e[5mC]*d[5mC]*dA*dA*dT*dT*dT*d[5mC]*dT*dG*dA*eA*eA*eG*eG*eG; antisense) [compound 547361] | 46% | 
7 | 547362 (e[5mC]*eA*eA*e[5mC]*eA*dT*d[5mC]*d[5mC]*dA*d[5mC]*dA*dT*d[5mC]*dT*dG*eA*eG*eA*eA*e[5mC]; antisense) [compound 547362] | 47% | 
8 | 547363 (eG*eG*e[5mC]*eA*eA*d[5mC]*dA*dT*d[5mC]*d[5mC]*dA*d[5mC]*dA*dT*d[5mC]*eT*eG*eA*eG*eA; antisense) [compound 547363] | 84% | 
9 | 547365 (eT*eG*eA*eG*eA*dA*d[5mC]*d[5mC]*d[5mC]*dT*dG*dG*d[5mC]*dA*dA*e[5mC]*eA*eT*e[5mC]*e[5mC]; antisense) [compound 547365] |  | 81%
10 | 547367 (eA*eT*e[5mC]*eT*eG*dG*dA*dG*dT*dG*dA*dG*dA*dA*d[5mC]*e[5mC]*e[5mC]*eT*eG*eG; antisense) [compound 547367] |  | 76%
11 | 547369 (eA*eA*eG*e[5mC]*eA*dT*d[5mC]*dT*dG*dG*dA*dG*dT*dG*dA*eG*eA*eA*e[5mC]*e[5mC]; antisense) [compound 547369] |  | 76%
12 | 547370 (e[5mC]*eA*eA*eA*eA*dG*d[5mC]*dA*dT*d[5mC]*dT*dG*dG*dA*dG*eT*eG*eA*eG*eA; antisense) [compound 547370] |  | 73%
13 | 547371 (eA*eT*eG*eG*eT*d[5mC]*d[5mC]*dG*dA*d[5mC]*dA*d[5mC]*dA*d[5mC]*dA*eA*eA*eA*eG*e[5mC]; antisense) [compound 547371] |  | 66%
14 | 547372 (eG*eA*eT*eG*eG*dT*d[5mC]*d[5mC]*dG*dA*d[5mC]*dA*d[5mC]*dA*d[5mC]*eA*eA*eA*eA*eG; antisense) [compound 547372] |  | 32%
15 | 547375 (eG*eT*eG*eA*eT*dA*dG*dG*dT*dG*d[5mC]*dA*dG*dA*dT*eG*eG*eT*e[5mC]*e[5mC]; antisense) [compound 547375] |  | 72%
16 | 547376 (eG*eA*eA*eT*eG*dT*dA*dA*dA*dG*dA*dA*dG*dA*dG*eG*e[5mC]*eA*eG*eT; antisense) [compound 547376] |  | 43%
17 | 547377 (e[5mC]*eA*eT*eT*eT*dG*dT*dA*dT*dA*dG*dA*dA*dT*dG*eT*eA*eA*eA*eG; antisense) [compound 547377] |  | 6%
18 | 547378 (eT*eA*e[5mC]*eA*eT*dT*dT*dG*dT*dA*dT*dA*dG*dA*dA*eT*eG*eT*eA*eA; antisense) [compound 547378] |  | 0%
19 | 547379 (e[5mC]*eT*e[5mC]*eG*eA*dT*dT*dT*dT*d[5mC]*d[5mC]*dA*dT*dA*d[5mC]*eA*eT*eT*eT*eG; antisense) [compound 547379] |  | 37%
20 | 547380 (eT*eG*eA*e[5mC]*eT*d[5mC]*dG*dA*dT*dT*dT*dT*d[5mC]*d[5mC]*dA*eT*eA*e[5mC]*eA*eT; antisense) [compound 547380] |  | 42%

From patent US11840686B2, “Modulation of prekallikrein (PKK) expression” (Ionis Pharmaceuticals, Inc., priority 2013, dated 2023)
